EP4692095A1, “SALT CRYSTAL FORM OF QUATERNARY FUSED RING COMPOUND, AND PREPARATION METHOD THEREFOR AND USE THEREOF” (Jiangsu Hansoh Pharmaceutical Group Co., Ltd., priority 2023, dated 2024)

Assays:
[1] = tested on: human chronic myeloid leukemia cell strain KCL22-s; experiment: Efficacy on subcutaneous xenograft tumor model of KCL22-s; conditions: oral, dosing cycle 15 days
[2] = Pharmacokinetic study in dogs; type: in vivo, beagle dogs
Description: (§1) The crystal form A of the p-tosylate of the compound was fully suspended in an aqueous solution of 0.5% HPMC (hydroxypropylmethyl cellulose) K4M, and then administered to beagle dogs by gavage at a dosage of 20 mg/kg and a dose volume of 5 mL/kg, with three dogs in each parallel experiment. The amount of the compound was fully converted into the amount of an equivalent free base.

[3] = Pharmacokinetic study in rats; type: in vivo; conditions: for AUC(0-inf) / Cmax / MRT / Tmax / half-life: in vivo, suspension in 0.5% HPMC K4M
Description: as §1, with “rats” for “beagle dogs”, “10” for “20”, “30 mg/kg,” for “a dose volume of 5 mL/kg,”, “rats” for “dogs”

[4] = tested on: human peripheral blood basophilic leukemia cells Ku812; experiment: Inhibition of proliferation of tumor cell strains carrying BCR-ABL1 fusion mutations (CellTiter-Glo); type: cell-based; conditions: 72 h
Text: (§2) The test objective was to evaluate the inhibitory activity of the compounds of the present invention against proliferation of human erythroleukemia cells K562, human peripheral blood basophilic leukemia cells Ku812, and human chronic granulocytic leukemia cells KCL22-s and KCL22-r cultured in vitro.
(§3) CellTiter-Glo® Luminescent Cell Viability Assay was used to detect the inhibitory effect of drugs on tumor cell proliferation and growth. The logarithmic growth phase cells cultured overnight were directly taken, pipetted up and down, mixed and counted, the cell density was adjusted according to different cell density requirements, and the cells were prepared into a cell suspension and plated on a 96-well plate. Drugs at different concentrations were added, three replicate wells were set for each concentration, and corresponding solvent controls were set. The maximum concentration of compound detected was 500 nM, with 3-fold gradient dilution, and a total of 9 concentrations (500-0.076 nM). The cells with the compound being added were cultured for another 72 h at 37°C and 5% CO2. The culture plate and its contents were equilibrated to room temperature, the CellTiter-Glo® reagent was added, the contents was mixed on a shaker for 3 min to induce cell lysis, the culture plate was further incubated at room temperature in the dark for 10 min, and the chemiluminescence signal value was determined by a microplate reader (BioTek SynergyH1).

[5] = tested on: human erythroleukemia cells K562; experiment: as above; type: cell-based; conditions: 72 h
Text: as §2, §3

[6] = tested on: human chronic granulocytic leukemia cells KCL22-s; experiment: as above; type: cell-based; conditions: KCL22-s (imatinib-sensitive strain), 72 h
Text: as §2, §3

[7] = tested on: human chronic granulocytic leukemia cells KCL22-r; experiment: as above; type: cell-based; conditions: KCL22-r (imatinib-resistant strain), 72 h
Text: as §2, §3

[8] = tested on: Ba/F3 BCR-ABL1-E255K; experiment: Inhibition of proliferation of BaF3 cells overexpressing BCR-ABL1 mutations (CellTiter-Glo); type: cell-based, Mouse; conditions: 72 h
Text: (§4) The test objective was to evaluate the inhibitory activity of the compounds of the present invention against proliferation of the Ba/F3 BCR-ABL1-T315I, Ba/F3 BCR-ABL1-E255K, Ba/F3 BCR-ABL1-E255V, and Ba/F3 BCR-ABL1-G250E mutation models of mouse primary B cells cultured in vitro.
(§5) CellTiter-Glo® Luminescent Cell Viability Assay was used to detect the inhibitory effect of drugs on tumor cell proliferation and growth. The logarithmic growth phase cells cultured overnight were directly taken, pipetted up and down, mixed and counted, the cell density was adjusted according to different cell density requirements, and the cells were prepared into a cell suspension and plated on a 96-well plate. Drugs at different concentrations were added, 3 replicate wells were set for each concentration, and corresponding vehicle controls were set. The maximum test concentration in Ba/F3 BCR-ABL1-T315I and Ba/F3 BCR-ABL1-E255K cells was 10000 nM, with 3.16-fold gradient dilution and a total of 9 concentrations (10000-1.0058 nM). The maximum concentration of the compounds detected in other cells was 500 nM, with 3.16-fold gradient dilution, and a total of 9 concentrations (500-0.0503 nM). The cells with the compound being added were cultured for another 72 h at 37°C and 5% CO2. The culture plate and its contents were equilibrated to room temperature, the CellTiter-Glo® reagent was added, the contents were mixed on a shaker for 5 min to induce cell lysis, the culture plate was further incubated at room temperature in the dark for 20 min, and the luminescence was read with a microplate reader.

[9] = tested on: Ba/F3 BCR-ABL1-T315I; experiment: as above; type: cell-based, Mouse; conditions: 72 h
Text: as §4, §5

[10] = tested on: Ba/F3 BCR-ABL1-E255V; experiment: as above; type: cell-based, Mouse; conditions: 72 h
Text: as §4, §5

[11] = tested on: Ba/F3 BCR-ABL1-G250E; experiment: as above; type: cell-based, Mouse; conditions: 72 h
Text: as §4, §5

[12] = target: ABL1 WT kinase (Homo sapiens, UniProt P00519); experiment: In vitro inhibitory activity against ABL1 WT kinase (capillary electrophoresis, substrate peptide phosphorylation); type: biochemical; conditions: Maximum concentration 1 µM
Description: Capillary electrophoresis was used to detect the phosphorylation conversion rate of the substrate peptide to determine the IC50 value of the test compound for inhibiting the kinase (ABL1-WT). The maximum concentration of the compound tested in the test was 1000 nM, with 3-fold dilution, and a total of 12 concentrations (1000 - 0.0056 nM). First, an enzyme reaction system (the concentration of enzyme ABL1-WT was 1.3 nM, the concentration of substrate FLPeptide2 was 1.5 µM, and the reaction factor was 10 mM MgCl2) was prepared. After incubation at room temperature for 30 min, 5 µL of 4×ATP solution was added to start the enzyme reaction. After reacting at room temperature for 90 min, the reaction was stopped by adding a stop buffer (containing 0.5 M EDTA). The sample was analyzed using an EZ reader (analysis conditions: pressure -1.5PSI, upper voltage current -2250V, lower voltage current -500V, separation time 40 sec, system delay 100.0 sec).
From the conversion rate read by EZ Reader, the remaining activity was calculated according to the following formula. Remaining Activity (%) = 100% × (CRSample −CRLC)/(CRHC −CRLC) [formula]
IC50 was calculated using XLfit, and IC50 was calculated by Formula 201 as the fitting formula.

[13] = Thermodynamical stability experiment (polymorph screening by slurrying, XRPD); type: physicochemical; conditions: comparison of DSC patterns of crystal forms A-E
[14] = Dynamic vapor sorption experiment; type: physicochemical
Description: The crystal form A of the p-tosylate of the compound was placed in saturated water vapor with different relative humidities to reach a dynamic equilibrium between the compound and the water vapor, and the percentage of hygroscopic weight gain of the compound after reaching the equilibrium was calculated.

[15] = Thermodynamical stability experiment (polymorph screening by slurrying, XRPD); type: physicochemical
Description: An organic solvent with certain solubility was selected, and the crystal form A of the p-tosylate of the compound was suspended in the solvent system. The resulting system was slurried by stirring at room temperature for 2 weeks, and centrifuged. The supernatant was discarded. After the solid was dried under vacuum at 50°C (-0.1 MPa) for 16 h, the XRPD pattern of the solid was measured and compared with the XRPD of the salt of the starting compound.

[16] = dog, in vivo, po, beagle dogs, gavage 20 mg/kg, suspension in 0.5% HPMC K4M

Sequence of ABL1 WT kinase (P00519 whole entry): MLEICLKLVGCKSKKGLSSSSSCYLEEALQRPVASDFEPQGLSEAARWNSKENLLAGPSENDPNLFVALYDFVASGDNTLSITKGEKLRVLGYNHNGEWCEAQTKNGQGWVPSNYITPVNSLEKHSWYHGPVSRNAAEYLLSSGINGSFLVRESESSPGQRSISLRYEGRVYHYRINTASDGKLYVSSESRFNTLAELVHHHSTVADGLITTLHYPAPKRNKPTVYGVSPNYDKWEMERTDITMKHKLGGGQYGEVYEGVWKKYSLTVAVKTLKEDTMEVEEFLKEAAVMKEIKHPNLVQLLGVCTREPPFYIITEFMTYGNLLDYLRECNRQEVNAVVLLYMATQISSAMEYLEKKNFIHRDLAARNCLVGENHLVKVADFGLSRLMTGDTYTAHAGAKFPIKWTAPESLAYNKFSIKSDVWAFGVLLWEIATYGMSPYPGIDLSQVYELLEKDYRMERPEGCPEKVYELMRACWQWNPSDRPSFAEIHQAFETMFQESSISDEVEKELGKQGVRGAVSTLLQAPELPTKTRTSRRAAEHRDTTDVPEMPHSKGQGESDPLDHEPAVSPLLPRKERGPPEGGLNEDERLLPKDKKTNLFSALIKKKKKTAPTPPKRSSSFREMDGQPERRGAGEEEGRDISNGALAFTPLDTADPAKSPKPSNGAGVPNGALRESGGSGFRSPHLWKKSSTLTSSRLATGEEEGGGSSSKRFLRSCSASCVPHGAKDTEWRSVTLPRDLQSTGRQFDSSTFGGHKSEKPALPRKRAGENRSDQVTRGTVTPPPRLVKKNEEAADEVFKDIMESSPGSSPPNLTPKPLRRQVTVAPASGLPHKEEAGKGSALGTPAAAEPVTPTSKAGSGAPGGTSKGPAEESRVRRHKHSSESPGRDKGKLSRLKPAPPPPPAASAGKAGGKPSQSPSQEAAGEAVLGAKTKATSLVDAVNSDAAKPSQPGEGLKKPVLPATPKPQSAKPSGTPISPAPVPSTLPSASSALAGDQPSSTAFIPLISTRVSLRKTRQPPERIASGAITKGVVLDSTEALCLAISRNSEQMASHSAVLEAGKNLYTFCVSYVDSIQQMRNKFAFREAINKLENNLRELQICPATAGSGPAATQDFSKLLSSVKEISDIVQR

Cc1ccc(NC(=O)c2ccc(CN3CCN(C)CC3)cc2)cc1Nc1nccc(-c2cccnc2)n1 [Imatinib]
T/C ([1]; 75 mg/kg qd): 46.92%
TGI ([1]; 75 mg/kg qd): 56.03%

C[C@@H]1COC2NC=NC=C2c2cc(C(=O)Nc3ccc(OC(F)(F)Cl)cc3)cc3nc(C(F)F)n1c23 (some centres unmarked) [Crystal form A of p-tosylate]
F ([2]; beagle dogs, gavage 20 mg/kg, suspension in 0.5% HPMC K4M): 68.6%
AUC(0-inf) [2, 16]: 40400 ng·h/mL
Cmax [2, 16]: 5720 ng/mL
MRT [2, 16]: 5.47 h
Tmax [2, 16]: 1.33 h
half-life [2, 16]: 5.58 h
AUC(0-inf) ([3]; Rat PO 10 mg/kg): 2600 ng·h/mL
Cmax ([3]; Rat PO 10 mg/kg): 881 ng/mL
MRT ([3]; Rat PO 10 mg/kg): 2.86 h
Tmax ([3]; Rat PO 10 mg/kg): 1 h
half-life ([3]; Rat PO 10 mg/kg): 3.55 h
AUC(0-inf) ([3]; Rat PO 30 mg/kg): 15600 ng·h/mL
Cmax ([3]; Rat PO 30 mg/kg): 4510 ng/mL
MRT ([3]; Rat PO 30 mg/kg): 2.97 h
Tmax ([3]; Rat PO 30 mg/kg): 1 h
half-life ([3]; Rat PO 30 mg/kg): 2.71 h

p-tosylate of (3R)-N-(4-(chlorodifluoromethoxy)phenyl)-2-(difluoromethyl)-3-methyl-3,4,5a,6-tetrahydro-5-oxa-1,2a,6,8-tetraazabenzo[4,5]cyclooctyl[1,2,3-ed]indene-11-carboxamide [Example 1]
T/C ([1]; 1.5 mg/kg bid): 7.05%
TGI ([1]; 1.5 mg/kg bid): 98.20%
Tumor volume ([1]; 1.5 mg/kg bid): 143±35 mm^3
T/C ([1]; 3 mg/kg bid): 0.69%
TGI ([1]; 3 mg/kg bid): 187.08%
Tumor volume ([1]; 3 mg/kg bid): 14±5 mm^3
T/C ([1]; 3 mg/kg qd): 3.98%
TGI ([1]; 3 mg/kg qd): 127.26%
Tumor volume ([1]; 3 mg/kg qd): 81±19 mm^3
T/C ([1]; 7.5 mg/kg bid): 0.52%
TGI ([1]; 7.5 mg/kg bid): 190.62%
Tumor volume ([1]; 7.5 mg/kg bid): 11±7 mm^3
IC50 [4]: 4.13 nM
IC50 [5]: 13 nM
IC50 [6]: 2.99 nM
IC50 [7]: 14.6 nM
IC50 [8]: 26.3 nM
IC50 [9]: 46.8 nM
IC50 [10]: 7.15 nM
IC50 [11]: 5.36 nM
IC50 [12]: 0.43 nM

(3R)-N-(4-(chlorodifluoromethoxy)phenyl)-2-(difluoromethyl)-3-methyl-3,4,5a,6-tetrahydro-5-oxa-1,2a,6,8-tetraazabenzo[4,5]cyclooctyl[1,2,3-cd]indene-11-carboxamide [crystal form A of the p-tosylate]
thermodynamic stability among crystal forms of the p-tosylate [13]: the most thermodynamically stable crystal form among these crystal forms
crystal form (XRPD pattern) after hygroscopic-dehygroscopic cycles ([14]; 2 cycles at relative humidity of 0-95%): remained unchanged
hygroscopic weight gain ([14]; at RH 80%): 0.3545%
stability in a humid environment ([14]; conclusion in words): stable in a humid environment
pharmacokinetics in dogs (in words) ([2]; gavage, 20 mg/kg): good metabolic properties, exposure dosage, and significantly improved bioavailability
pharmacokinetics in rats (in words) ([3]; gavage, dose of 30 mg/kg): good metabolic properties
Crystal form results ([15]; Initial (before slurrying)): Form A
Crystal form results ([15]; slurried in 2-butanone, room temperature, 2 weeks, XRPD): Form A
Crystal form results ([15]; slurried in 2-methyltetrahydrofuran, room temperature, 2 weeks, XRPD): Form A
Crystal form results ([15]; slurried in 3-pentanone, room temperature, 2 weeks, XRPD): Form A
Crystal form results ([15]; slurried in Acetone, room temperature, 2 weeks, XRPD): Form A
Crystal form results ([15]; slurried in Acetonitrile, room temperature, 2 weeks, XRPD): Form A
Crystal form results ([15]; slurried in Chloroform, room temperature, 2 weeks, XRPD): Form A
Crystal form results ([15]; slurried in Dichloromethane, room temperature, 2 weeks, XRPD): Form A
Crystal form results ([15]; slurried in Ethanol, room temperature, 2 weeks, XRPD): Form A
Crystal form results ([15]; slurried in Ethyl acetate, room temperature, 2 weeks, XRPD): Form A
Crystal form results ([15]; slurried in Ethyl formate, room temperature, 2 weeks, XRPD): Form A
Crystal form results ([15]; slurried in Isopropanol, room temperature, 2 weeks, XRPD): Form A
Crystal form results ([15]; slurried in Isopropyl acetate, room temperature, 2 weeks, XRPD): Form A
Crystal form results ([15]; slurried in Methanol, room temperature, 2 weeks, XRPD): Form A
Crystal form results ([15]; slurried in Tetrahydrofuran, room temperature, 2 weeks, XRPD): Form A
Crystal form results ([15]; slurried in Toluene, room temperature, 2 weeks, XRPD): Form A
Crystal form results ([15]; slurried in n-heptane, room temperature, 2 weeks, XRPD): Form A
